Where a SMILES comes first, the peptide text is derived from it. Where no end group is shown, it is not given here. [ ]: non-standard residue; d: D form. ξ: configuration not given here. ξαMeBip(2'-Et,4'-OMe) = CCc1cc(OC)ccc1-c1ccc(CC(C)(N)C(=O)O)cc1; Bip(2'-Et-4'-OMe) = CCc1cc(OC)ccc1-c1ccc(C[C@H](N)C(=O)O)cc1; ξαMePhe(2,6-F2) = CC(N)(Cc1c(F)cccc1F)C(=O)O; αMePhe(2-F) = C[C@](N)(Cc1ccccc1F)C(=O)O; ξαMe(hhPhe) = CC(N)(CCCc1ccccc1)C(=O)O; ξαMePhe(2-F) = CC(N)(Cc1ccccc1F)C(=O)O; αMeD = C[C@](N)(CC(=O)O)C(=O)O; ξhhPhe = NC(CCCc1ccccc1)C(=O)O; ξαMeD = CC(N)(CC(=O)O)C(=O)O; αMeAPPA = not defined here; αMeS = C[C@](N)(CO)C(=O)O; ξαMeP = CC1(C(=O)O)CCCN1; Aib = CC(C)(N)C(=O)O
Columns and labels:
[1] = tested on: RIN5F (Rat Insulinoma) cells; assay: In vitro glucose-dependent insulin secretion (RIN5F cell assay); assay type: cell-based; settings: 16.7-mM glucose load, n = 3, mean ± S.D.
Summary of the method: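 Rat RIN5F cells were preincubated 40 min in Krebs-Ringer buffer with 1.1 mM glucose and 0.5% BSA, pH 7.4, then exposed to test peptidomimetics for 30 min at 37 °C with 16.7 mM or 0 mM glucose. Supernatant insulin was measured by rat insulin ELISA and normalised to total protein (BCA), as pg/μg.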

DPP IV enzyme = DPP IV enzyme (Homo sapiens, UniProt P27487); assay: Stability against DPP IV enzyme; assay type: in vitro ADME; settings: 2 μM, 37° C.; for half-life: read-out: half-life (t1/2) with DPP-IV enzyme
Sequence of DPP IV enzyme (P27487 whole entry, species assumed): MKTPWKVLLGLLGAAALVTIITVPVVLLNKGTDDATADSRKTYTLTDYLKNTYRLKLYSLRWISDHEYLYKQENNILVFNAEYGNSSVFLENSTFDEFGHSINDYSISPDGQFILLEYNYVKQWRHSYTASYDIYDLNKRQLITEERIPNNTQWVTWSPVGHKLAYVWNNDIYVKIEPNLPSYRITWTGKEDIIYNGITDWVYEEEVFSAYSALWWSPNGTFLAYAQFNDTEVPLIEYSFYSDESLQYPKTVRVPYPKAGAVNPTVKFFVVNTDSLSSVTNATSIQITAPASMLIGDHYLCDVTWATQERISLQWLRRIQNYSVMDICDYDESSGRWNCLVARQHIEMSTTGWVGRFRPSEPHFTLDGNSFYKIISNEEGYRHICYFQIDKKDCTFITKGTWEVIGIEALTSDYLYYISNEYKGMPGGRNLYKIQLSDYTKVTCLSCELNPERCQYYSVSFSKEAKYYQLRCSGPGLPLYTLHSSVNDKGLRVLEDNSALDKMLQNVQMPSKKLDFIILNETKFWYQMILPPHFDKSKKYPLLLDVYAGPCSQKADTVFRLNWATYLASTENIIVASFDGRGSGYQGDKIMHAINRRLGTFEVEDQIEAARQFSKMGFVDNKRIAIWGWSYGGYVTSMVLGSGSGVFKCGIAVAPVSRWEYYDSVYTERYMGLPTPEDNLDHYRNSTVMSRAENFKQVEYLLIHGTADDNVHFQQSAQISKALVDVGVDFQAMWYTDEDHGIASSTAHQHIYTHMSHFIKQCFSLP

[2] = Stability in human plasma; assay type: in vitro ADME; settings: 2 μM, 37° C.; for half-life: human, plasma, read-out: half-life (t1/2) in human plasma
[3] = Stability in simulated gastric fluid; assay type: in vitro ADME; settings: 2 μM, 37° C.; for % degradation in 24 h when incubated with simulated gastric fluid: pH 1.5, 24 h; for half-life: simulated gi fluid, read-out: half-life (t1/2) in simulated gastric fluid; for half-life / half-life (t1/2) in simulated gastric fluid: pH 1.5
Protocol: (§1) Reactions were terminated by the addition of TFA/H2O ([…], 10% (v/v)). […] The column was equilibrated with TFA/H20, at a flow rate of 1 mL/min. […] The absorbance was monitored at 206 nm using UV detector and peaks were collected manually prior to ESI-MS analysis.

[4] = Stability in simulated intestinal fluid; assay type: in vitro ADME; settings: 2 μM, 37° C.; for % degradation in 24 h when incubated with simulated intestinal fluid: pH 7.5, 24 h; for half-life: simulated gi fluid, read-out: half-life (t1/2) in simulated intestinal fluid; for half-life / half-life (t1/2) in simulated intestinal fluid: pH 7.5
Protocol: as §1

[5] = Stability in liver microsomes; assay type: in vitro ADME, human; settings: 2 μM, 37° C.; for half-life: human, microsomes, read-out: half-life (t1/2) in liver microsomes
Protocol: as §1

human GLP-1 receptor = human GLP-1 receptor (human, UniProt P43220 24-463); assay: cell-based or functional assay

Molecule	% degradation in 24 h when incubated with DPP-IV enzyme (DPP IV enzyme)	half-life (DPP IV enzyme)	% degradation in 24 h when incubated with human plasma [2]	half-life [2]	% degradation in 24 h when incubated with simulated gastric fluid [3]	half-life [3]	% degradation in 24 h when incubated with simulated intestinal fluid [4]	half-life [4]	% degradation in 24 h when incubated with liver microsomes [5]	half-life [5]	half-life (t1/2) in simulated gastric fluid [3]	half-life (t1/2) in simulated intestinal fluid [4]	EC50, in-vitro human GLP-1 receptor agonistic activity (cAMP) (human GLP-1 receptor)	Insulin secretion ([1]; 0.1 nM test compd.)	Insulin secretion ([1]; 1 nM test compd.)	Insulin secretion ([1]; 10 nM test compd.)
CCc1cc(OC)ccc1-c1ccc(CC(C)(NC(=O)C(C)(CC(=O)O)NC(=O)[C@H](CO)NC(=O)[C@@H](NC(=O)[C@H](Cc2ccccc2)NC(=O)[C@@H](NC(=O)CNC(=O)[C@H](CCC(=O)O)NC(=O)C2(C)CCCN2C(=O)[C@H](Cc2c[nH]cn2)NC(=O)[C@@H](N)C(C)C)[C@@H](C)O)[C@@H](C)O)C(=O)NC(C)(CCCc2ccccc2)C(N)=O)cc1 (some centres unmarked) [compound 188] (H-VH[ξαMeP]EGTFTS[ξαMeD][ξαMeBip(2'-Et,4'-OMe)][ξαMe(hhPhe)]-NH2)	00%	> 24 h	00%	> 24 h	41%	4 h	00%	> 24 h	80%	2 h				12.9 ± 0.14 pg/µg/h	15.8 ± 0.13 pg/µg/h	29.9 ± 0.15 pg/µg/h
CCc1cc(OC)ccc1-c1ccc(CC(C)(NC(=O)C(C)(CC(=O)O)NC(=O)[C@H](CO)NC(=O)[C@@H](NC(=O)C(C)(Cc2ccccc2F)NC(=O)[C@@H](NC(=O)CNC(=O)[C@H](CCC(N)=O)NC(=O)C(C)(C)NC(=O)[C@H](Cc2c[nH]cn2)NC(=O)[C@@H](N)C(C)C)[C@@H](C)O)[C@@H](C)O)C(=O)NC(C)(CCCc2ccccc2)C(N)=O)cc1 (some centres unmarked) [compound 191] (H-VH[Aib]QGT[ξαMePhe(2-F)]TS[ξαMeD][ξαMeBip(2'-Et,4'-OMe)][ξαMe(hhPhe)]-NH2)	76%	9 h	78%	8 h	12%		55%		79%	1 h	(8) h	(6) h		16.1 ± 0.22 pg/µg/h	22.1 ± 0.26 pg/µg/h	36.0 ± 0.36 pg/µg/h
CCc1cc(OC)ccc1-c1ccc(CC(C)(NC(=O)[C@H](CC(=O)O)NC(=O)[C@H](CO)NC(=O)[C@@H](NC(=O)[C@H](Cc2ccccc2)NC(=O)[C@@H](NC(=O)CNC(=O)[C@H](CCC(N)=O)NC(=O)[C@H](CO)NC(=O)[C@H](Cc2c[nH]cn2)NC(=O)[C@@H](NC(=O)[C@@H](N)C(C)C)C(C)C)[C@@H](C)O)[C@@H](C)O)C(=O)NC(CCCc2ccccc2)C(N)=O)cc1 (some centres unmarked) [compound 205] (H-VVHSQGTFTSD[ξαMeBip(2'-Et,4'-OMe)][ξhhPhe]-NH2)	00%	> 24 h	00%	> 24 h	43%	4 h	00%	> 24 h	84%	2 h				12.6 ± 0.25 pg/µg/h	15.3 ± 0.31 pg/µg/h	29.7 ± 0.48 pg/µg/h

More lines, main results first:

% degradation in 24 h when incubated with DPP-IV enzyme (DPP IV enzyme)	half-life (DPP IV enzyme)	% degradation in 24 h when incubated with human plasma [2]	half-life [2]	% degradation in 24 h when incubated with simulated gastric fluid [3]	half-life [3]	% degradation in 24 h when incubated with simulated intestinal fluid [4]	half-life [4]	% degradation in 24 h when incubated with liver microsomes [5]	half-life [5]	half-life (t1/2) in simulated gastric fluid [3]	half-life (t1/2) in simulated intestinal fluid [4]	EC50, in-vitro human GLP-1 receptor agonistic activity (cAMP) (human GLP-1 receptor)	Molecule	Insulin secretion ([1]; 0.1 nM test compd.)	Insulin secretion ([1]; 1 nM test compd.)	Insulin secretion ([1]; 10 nM test compd.)
75%	9 h	77%	8 h	14%		45%		81%	1 h	(8) h	(6) h		CCc1cc(OC)ccc1-c1ccc(CC(C)(NC(=O)C(C)(CC(=O)O)NC(=O)[C@H](CO)NC(=O)[C@@H](NC(=O)C(C)(Cc2c(F)cccc2F)NC(=O)[C@@H](NC(=O)CNC(=O)[C@H](CCC(=O)O)NC(=O)[C@H](CO)NC(=O)[C@H](Cc2c[nH]cn2)NC(=O)[C@@H](N)C(C)C)[C@@H](C)O)[C@@H](C)O)C(=O)NC(C)(CCCc2ccccc2)C(N)=O)cc1 (some centres unmarked) [compound 201] (H-VHSEGT[ξαMePhe(2,6-F2)]TS[ξαMeD][ξαMeBip(2'-Et,4'-OMe)][ξαMe(hhPhe)]-NH2)	15.4 ± 0.14 pg/µg/h	21.2 ± 0.18 pg/µg/h	35.6 ± 0.17 pg/µg/h
												8 nM	VH[Aib]EGT[αMePhe(2-F)]T[αMeS][αMeD][Bip(2'-Et-4'-OMe)][αMeAPPA] (not fully specified (C-terminus); reading uncertain) [Seq. ID. No. 121]			

— patent publication US20120264685A1 (priority 2009, published 2012)
